Measured values taken from EP0427799B1, “METHOD AND COMPOUNDS FOR AICA RIBOSIDE DELIVERY AND FOR LOWERING BLOOD GLUCOSE” (GENSIA, INC., priority 1989, dated 1990).
Each block holds one molecule with its values, some of them ahead of it.

Legend:
[1] = Blood pressure and heart rate in rats; assay type: in vivo
Source text: (§1) We have expanded this work on AICA riboside and S-AICA riboside homocysteine to examine other known adenosine kinase inhibitors as adenosine releasing agents. The flux (substrate made into product per unit of time), through adenosine kinase under physiological conditions is low; substrate metabolism is low partly due to low substrate availability. However, during net ATP catabolism, substrate availability (i.e. adenosine concentration) dramatically increases. […] (See Figure 15).

cell culture = assay: Adenosine concentrations in cell culture during net ATP breakdown; assay type: cell-based
Source text: as §1

PTZ induced seizures = assay: Inhibition of PTZ-induced seizures; assay type: in vivo; conditions: mice
Description: (§2) All solutions to be injected were prepared as a single injection cocktail at a concentration such that 1 ml per 100 g of body weight yielded the desired dose. The solutions were compounded as follows: Homocysteine Thiolactone - HCl (HTL-HCl) (Sigma Chemical Company, St. Louis, MO) was dissolved in distilled water and the pH adjusted to 6.7 with NaOH. Pentylenetetrazol (PTZ) was dissolved in 0.9% saline. Prodrug compounds or AICA riboside (Sigma) when used alone was dissolved in distilled water. All solutions containing Mioflazine (Janssen Pharmaceuticals) were prepared at a final DMSO concentration of 10-15% as were the Dipyridamole (Sigma) solutions. N-ethylcarboxamide adenosine, NECA (Sigma) and Flunitrazepam (Hoffman La Roche) injections were prepared in a final ethanol concentration of 0.2%. In all cases carrier control solutions of carrier were injected that were matched for both tonicity and solvents to the test solutions. All test and control solutions were injected via a bolus, I.P., using a 27 gauge needle. HTL and PTZ were injected subcutaneously in the upper back of the animal.
Animals were preinjected with either control solution containing only carrier or test solution containing candidate compound (prodrug or AICA riboside) and carrier in groups of 6-8 per test solution or control. […]

ischemic heart tissue = assay: Adenosine, AICA riboside and ZMP levels in ischemic heart tissue; assay type: in vivo, rats; conditions: for adenosine concentrations during net ATP breakdown: rat heart ischemia model
Description: Prodrug compounds of the present invention and AICA riboside were tested for their activity in enhancing the production of adenosine and increasing production of AICA riboside from ZMP in ischemic heart tissue in rats.
Samples of heart tissue after ischemia were analyzed for nucleoside and nucleotide levels. Samples were measured for adenosine, AICA riboside and ZMP concentrations by HPLC.

HTL-induced seizures = assay: Inhibition of HTL-induced seizures; assay type: in vivo; conditions: mice
Description: Compounds were tested for their activities in inhibiting HTL-induced seizures in rats.
Animals used were male Swiss Webster mice weighing 21-30 grams (Charles River Breeding Labs, Wilmington, MA). All animals were adapted to the laboratory for at least 5 days prior to use.
as §2, with “animal. […]” for “animal.”

in vivo = assay: in vivo; set-up: species or system dogs; conditions: dog; for AUC / Cmax / Tmax: po
Description: The bioavailability of AICA riboside after oral administration of either AICA riboside or one of the AICA riboside prodrugs of the present invention was evaluated in dogs. Plasma concentrations of AICA riboside and intact prodrug were measured using HPLC. (See Dixon, R., et al., Res. Commun. Chem. Path. Pharm. 65:405-408 (1989)). Bioavailability of AICA riboside was evaluated in terms of the time required to reach maximum plasma concentration (Tmax), the maximum concentration achieved (Cmax) and the area under the plasma concentration-time curve (AUC) from time zero to the last measurable plasma concentration. Absolute bioavailability (F%) was calculated by dividing the AUC for AICA riboside following oral administration of the prodrug (or AICA riboside itself) by the AUC following intravenous administration of an equivalent amount of AICA riboside (100% bioavailability).

plasma glucose = assay: Plasma glucose after adenosine and adenosine receptor agonists I.P.; assay type: in vivo; conditions: administered I.P. in either rats or mice
Source text: This leads to investigation of the mechanism of AICA riboside induced hypoglycemia. […] This adenosine induced hyperglycemia is reversed by adenosine receptor antagonists (theophylline and sulphophenyltheophylline). Additionally, the AICA riboside-induced hypoglycemia is not blocked by theophylline. It is therefore concluded that the AICA riboside effect on plasma glucose is not mediated by adenosine. […] (See Figure 13).

[2] = Enhanced oral bioavailability: tissue ZMP levels after gavage; assay type: in vivo, Sprague-Dawley rats
Description: AICA riboside was administered to Sprague-Dawley rats at a dose of 250 mg/kg or 500 mg/kg, prodrug compounds of the present invention were administered at an equal molar dose.
At 15, 30, 60 and 120 minutes after gavage, the animals were sacrificed. The tissues were obtained and frozen immediately for nucleoside and nucleotide analysis. The tissue samples obtained were liver, heart, brain and whole blood. After initial freezing in liquid nitrogen, the tissue samples were extracted with trichloroacetic acid and neutralized with alamine freon. The tissue samples were evaluated by HPLC on a Whatman Partsil-10 (SAX) column for nucleosides and bases as described in Example 6. […] Tests were run with 8 rats.
Figures 5(a) and (b) show ZMP concentrations in rat liver at doses of a molar equivalent of 250 mg/kg and 500 mg/kg AICA riboside.

blood glucose = conditions: several animal species, including man; cited from earlier work
adenosine kinase = adenosine kinase (Homo sapiens, UniProt P55263); assay: Inhibition of adenosine kinase; assay type: biochemical
adenosine kinase, sequence (P55263 whole entry, species assumed): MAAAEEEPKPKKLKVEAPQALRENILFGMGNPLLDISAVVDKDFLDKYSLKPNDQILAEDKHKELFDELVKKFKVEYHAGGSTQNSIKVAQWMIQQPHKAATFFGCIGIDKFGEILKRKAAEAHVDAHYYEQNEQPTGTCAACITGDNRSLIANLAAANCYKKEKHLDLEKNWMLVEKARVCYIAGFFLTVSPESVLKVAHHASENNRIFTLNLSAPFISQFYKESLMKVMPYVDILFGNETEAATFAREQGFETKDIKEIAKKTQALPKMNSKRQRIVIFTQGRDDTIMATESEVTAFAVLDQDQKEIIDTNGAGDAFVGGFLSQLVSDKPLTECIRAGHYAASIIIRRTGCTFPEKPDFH

[3] = target: T1, fructose diphosphatase ("FDPase") (Oryctolagus cuniculus, UniProt P00637); assay: Inhibition of fructose-1,6-diphosphatase from rabbit liver; assay type: biochemical
T1 construct: fructose -1,6- diphosphatase from rabbit liver (Sigma); purchased Sigma; host or cells: rabbit liver (enzyme isolated from tissue)
T1 sequence (P00637 2-338 limits assumed): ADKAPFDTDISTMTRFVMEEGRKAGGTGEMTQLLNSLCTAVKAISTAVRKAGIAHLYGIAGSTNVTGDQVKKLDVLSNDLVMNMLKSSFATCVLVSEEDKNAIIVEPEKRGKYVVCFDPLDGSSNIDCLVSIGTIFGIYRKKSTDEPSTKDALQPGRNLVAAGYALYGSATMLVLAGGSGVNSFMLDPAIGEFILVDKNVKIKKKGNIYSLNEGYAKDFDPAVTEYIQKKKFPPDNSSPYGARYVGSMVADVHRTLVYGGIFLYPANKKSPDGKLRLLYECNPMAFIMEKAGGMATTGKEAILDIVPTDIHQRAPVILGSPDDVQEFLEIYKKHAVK
Source text: Activity was expressed as a velocity (rate of conversion of substrate).

FDPase [4] = target: T2, FDPase (Oryctolagus cuniculus, UniProt P00637); assay: Inhibition of liver FDPase by ZMP (IC50); assay type: biochemical; conditions: Rabbit liver homogenate supernatant
T2 construct: Liver samples (from the indicated species) were homogenized; from tissue; host or cells: rabbit liver homogenate, 45,000 x g supernatant passed over Sephadex G25
T2 sequence (P00637 2-338 limits assumed): as above
Description: (§3) Liver samples (from the indicated species) were homogenized in 20 mM potassium phosphate buffer (pH 7.4) with 100 µM EDTA and 100 µM dithiothreitol. The liver homogenates were centrifuged at 45,000 x/g. The supernatants were passed over a sephadex G25 column and assayed for FDPase activity by the method of Marcus et al (Methods in Enzymology 90: 352-356 (1982)) in the presence of ZMP over a range of concentration and in the absence of ZMP. The IC50 value was defined as the concentration of ZMP, which inhibited 50 percent of the baseline FDPase activity under the assay conditions.

FDPase [5] = target: T3, FDPase (Rattus norvegicus, UniProt P19112); assay: Inhibition of liver FDPase by ZMP (IC50); assay type: biochemical; conditions: Rat liver homogenate supernatant
T3 construct: Liver samples (from the indicated species) were homogenized; from tissue; host or cells: rat liver homogenate, 45,000 x g supernatant passed over Sephadex G25
T3 sequence (P19112 2-363 limits assumed): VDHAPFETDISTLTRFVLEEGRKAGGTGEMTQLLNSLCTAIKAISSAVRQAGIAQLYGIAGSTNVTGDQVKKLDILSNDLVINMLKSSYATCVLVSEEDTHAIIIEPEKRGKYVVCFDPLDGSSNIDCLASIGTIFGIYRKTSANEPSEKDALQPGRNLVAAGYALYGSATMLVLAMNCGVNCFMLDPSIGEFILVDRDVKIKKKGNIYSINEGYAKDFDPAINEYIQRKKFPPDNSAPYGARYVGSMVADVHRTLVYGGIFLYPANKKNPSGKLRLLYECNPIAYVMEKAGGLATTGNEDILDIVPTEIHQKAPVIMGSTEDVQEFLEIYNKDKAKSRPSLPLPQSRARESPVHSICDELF
Description: as §3

FDPase [6] = target: T4, FDPase (Homo sapiens, UniProt P09467); assay: Inhibition of liver FDPase by ZMP (IC50); assay type: biochemical; conditions: Human liver homogenate supernatant
T4 construct: Liver samples (from the indicated species) were homogenized; from tissue; host or cells: human liver homogenate, 45,000 x g supernatant passed over Sephadex G25
T4 sequence (P09467 2-338 limits assumed): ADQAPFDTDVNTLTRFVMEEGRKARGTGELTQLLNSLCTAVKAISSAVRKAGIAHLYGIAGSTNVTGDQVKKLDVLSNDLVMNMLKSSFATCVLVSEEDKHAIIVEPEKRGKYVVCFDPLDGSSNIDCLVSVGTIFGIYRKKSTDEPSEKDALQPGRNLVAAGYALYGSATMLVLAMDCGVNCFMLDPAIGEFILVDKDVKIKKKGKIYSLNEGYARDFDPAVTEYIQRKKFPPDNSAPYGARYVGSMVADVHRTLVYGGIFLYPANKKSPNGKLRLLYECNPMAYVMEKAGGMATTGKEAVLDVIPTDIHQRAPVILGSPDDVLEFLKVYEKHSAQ
Description: as §3

FDPase [7] = assay: Inhibition of liver FDPase by ZMP (IC50); assay type: biochemical
Description: as §3

FDPase [8] = target: T5, FDPase (Mus musculus, UniProt Q9QXD6); assay: Inhibition of liver FDPase by ZMP (IC50); assay type: biochemical; conditions: Mouse liver homogenate supernatant
T5 construct: Liver samples (from the indicated species) were homogenized; from tissue; host or cells: mouse liver homogenate, 45,000 x g supernatant passed over Sephadex G25
T5 sequence (Q9QXD6 2-338 limits assumed): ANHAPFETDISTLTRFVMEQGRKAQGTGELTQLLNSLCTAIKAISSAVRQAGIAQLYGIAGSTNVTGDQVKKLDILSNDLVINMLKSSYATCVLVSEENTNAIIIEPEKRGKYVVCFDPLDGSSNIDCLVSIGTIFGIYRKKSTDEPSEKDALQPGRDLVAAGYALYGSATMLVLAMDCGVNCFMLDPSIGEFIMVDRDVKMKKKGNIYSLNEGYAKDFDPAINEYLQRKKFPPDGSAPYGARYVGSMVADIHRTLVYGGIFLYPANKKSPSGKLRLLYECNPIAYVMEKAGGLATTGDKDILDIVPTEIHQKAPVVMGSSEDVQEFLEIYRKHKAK
Description: as §3

Compound: NC[C@H]1O[C@@H](n2cnc3c(N)ncnc32)[C@H](O)[C@@H]1O [5'-amino-5'-deoxyadenosine]
changes in blood pressure or heart rate [1]: did not produce any significant changes in blood pressure or heart rate
adenosine concentrations during net ATP breakdown (cell culture): increased adenosine concentrations
activity against PTZ induced seizures (PTZ induced seizures): effective in blocking pentylene-tetrazole (PTZ) induced seizures
adenosine concentrations during net ATP breakdown (ischemic heart tissue): increased adenosine concentrations
activity against HTL-induced seizures (HTL-induced seizures): observed to prevent HTL-induced seizure

Compound: Nc1ncnc2c1c(I)cn2[C@@H]1O[C@H](CO)[C@@H](O)[C@H]1O [5-iodotubercidin]
adenosine concentrations during net ATP breakdown (cell culture): increased adenosine concentrations
adenosine concentrations during net ATP breakdown (ischemic heart tissue): increased adenosine concentrations

F (in vivo): 60%
AUC (in vivo): 4.9 µg·h/mL
Cmax (in vivo): 5.0 µg/mL
Tmax (in vivo): 0.75 h
Compound: CC(C)C(=O)OC[C@H]1O[C@@H](n2cnc(C(N)=O)c2N)[C@H](O)[C@@H]1O [Compound 10, 5'-isobutyryl-AICA riboside]

F (in vivo): 44%
AUC (in vivo): 3.7 µg·h/mL
Cmax (in vivo): 3.2 µg/mL
Tmax (in vivo): 1.0 h
Compound: CC(C)(C)C(=O)OC[C@H]1O[C@@H](n2cnc(C(N)=O)c2N)[C@H](O)[C@@H]1O [Compound 11, 5'-pivalyl-AICA riboside]

F (in vivo): 39%
AUC (in vivo): 3.2 µg·h/mL
Cmax (in vivo): 2.2 µg/mL
Tmax (in vivo): 1.5 h
Compound: CC(=O)OC[C@H]1O[C@@H](n2cnc(C(N)=O)c2N)[C@H](OC(C)=O)[C@@H]1OC(C)=O [Compound C1, 2',3',5'-triacetyl AICA riboside]

Compound: CCNC(=O)[C@H]1O[C@@H](n2cnc3c(N)ncnc32)[C@H](O)[C@@H]1O [N-ethylcarboxamide adenosine]
increases in plasma glucose (hyperglycemia) (plasma glucose): 200-300%

ZMP accumulation in the liver relative to AICA riboside ([2]; after an equimolar gavage): 5 times
oral bioavailability as evidenced by ZMP levels in liver, whole blood and heart ([2]; rats, gavage, dose equimolar to AICA riboside): increased oral bioavailability
Tissue Concentration AICA Riboside (ischemic heart tissue; ischemic rat heart tissue, equimolar doses): 592 ± 55 nmol/g
Compound: CC(C)COC(=O)O[C@H]1[C@@H](O)[C@H](n2cnc(C(N)=O)c2N)O[C@@H]1CO [Prodrug A, 5-amino-3'-(2-methyl-1-propoxycarbonyl)-1-β-D-ribofuranosyl-imidazole-4-carboxamideie]
potency in enhancing adenosine production relative to AICA riboside (ischemic heart tissue; ischemic heart model, molar basis): about 30%
Tissue Concentration Adenosine (ischemic heart tissue; ischemic rat heart tissue, Prodrug A at dose equimolar to AICA riboside): 553 ± 46 nmol/g
activity against HTL-induced seizures (HTL-induced seizures): improved anticonvulsant activity

Compound: O=C[C@H](O)[C@H](O)[C@H](O)CO [Ribose]
dose lowering blood glucose (blood glucose): about 1000 mg/kg

inhibition of adenosine kinase (adenosine kinase): more potent
Compound: NC(=O)c1ncn(C2OC(CSCCC(N)C(=O)O)C(O)C2O)c1N (stereo not shown) [S-AICA riboside homocysteine, S-AICA ribosyl homocysteine]

Compound: NC(=O)c1ncn([C@@H]2O[C@H](COP(=O)(O)O)[C@@H](O)[C@H]2O)c1N [ZMP, AICA riboside-5'-monophosphate]
Ki [3]: ~40 µM
IC50 (FDPase [4]): 41 µM
IC50 (FDPase [5]): 375 µM
IC50 (FDPase [6]): 48 µM
IC50 (FDPase [7]; Gerbil liver homogenate supernatant): 50 µM
IC50 (FDPase [7]; Guinea Pig liver homogenate supernatant): 12 µM
IC50 (FDPase [8]): 150 µM

Compound: Nc1ncnc2c1ncn2[C@@H]1O[C@H](CO)[C@@H](O)[C@H]1O [adenosine, 9-β-D-ribofuranosyladenine]
increases in plasma glucose (hyperglycemia) (plasma glucose): 200-300%

Compound: OC[C@H]1O[C@@H](n2cnc3c(NC4CCCCC4)ncnc32)[C@H](O)[C@@H]1O [cyclohexyladenosine]
increases in plasma glucose (hyperglycemia) (plasma glucose): 200-300%
